We go through 19 compounds from PubChem BioAssay (NCI).

What all share (assay): NCI anticancer screen, dose series, 48 h
The subject of experiment [1] is A549 NSCLC.
Experiment [2] relates to K-562 leukemia.
The test system of experiment [3] is KM12 colon.
The test system of experiment [4] is M14 melanoma.
The subject of experiment [5] is MDA-MB-231 breast.
Experiment [6] has as its system NCI-H23 lung.
For experiment [7], the system named is OVCAR-8 ovarian.
Experiment [8] relates to RXF 393 renal.
Experiment [9] relates to SK-MEL-2 melanoma.
Experiment [10] concerns T-47D breast.

Structures are written as SMILES.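 Grown in 96-well plates, cells were treated for 48 hours with each compound at five concentrations. Insufficient inhibition: endpoint recorded as highest concentration tested. GI50 is the concentration that inhibits growth by half. TGI: total growth inhibition.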

For `CCC1(OC(=O)CN2CCN(CCO)CC2)C(=O)OCc2c1cc1n(c2=O)Cc2cc3ccccc3nc2-1` (centres undefined), the TGI in [1] is 29.5 µM; in experiment [2] it was 26.2 µM; in [3], 4.49 µM; in experiment [4], 1.92 µM; in experiment [5], 65.7 µM; in [6] it was 2.43 µM. Besides, the TGI is 16 µM in [7], 3.27 µM in experiment [8], 9.52 µM in experiment [9] and 4.92 µM in experiment [10].

Regarding `OC1c2ccccc2[C@@H]2[C@H]1[C@@H](c1ccccc1)C1(Cc3ccccc3C1O)[C@H]2c1ccccc1` (some centres undefined), the TGI in experiment [1] worked out at 14.2 µM; in experiment [2], 10.7 µM; in experiment [3] it was 8.25 µM; in experiment [4] it was 17.1 µM; in experiment [5], 20.3 µM; in [6], 18.4 µM. The TGI is 15.3 µM in experiment [7], 4.83 µM in [8], 20 µM in [9] and 22.5 µM in experiment [10].

For `O=C(NCCN1C(=O)CN=C(c2ccc(Cl)cc2)c2cc(Cl)ccc21)OCc1ccccc1`, the TGI was found to be 32.7 µM in [1]; 31.1 µM in experiment [2]; 32.4 µM in experiment [3]; 34.9 µM in [4]; 32.3 µM in [5]; 33.8 µM in experiment [6]. For the same compound, the TGI in experiment [7] is 38.3 µM; in [8], 23.8 µM; in experiment [9], 36 µM; in experiment [10] it was greater than 100 µM.

`Cc1c2c(c(C)n1-c1ccccc1)C(=O)N(CCSC(=N)N)C2=O`: the TGI in [1], in experiment [2], in experiment [3], in experiment [4], in [5] and in [6] was greater than 100 µM each time. In addition, the TGI in experiment [7] was greater than 100 µM; in [8], greater than 100 µM; in experiment [9] it was greater than 100 µM; in experiment [10], 73.6 µM.

In the case of `COc1cc([C@@H]2c3cc4c(cc3[C@H](OC3OC5COC(C(C)C)OC5C(O)C3O)C3COC(=O)[C@@H]32)OCO4)cc(OC)c1O` (some centres undefined), the TGI in experiment [1] was 21.8 µM; in [2], greater than 100 µM; in experiment [3] it was 39.6 µM; in experiment [4], 24.3 µM; in [5], 28.8 µM; in experiment [6] it was 15.4 µM. The TGI in [7] came to 25.9 µM; in experiment [8], 17.2 µM; in [9] it was 31.5 µM; in experiment [10] it was 60.1 µM.

Regarding `CC(O)c1c2c(cc3c1CC1(C3)Cc3cc4c(c(C(C)O)c3C1)CCC4)CCC2` (centres undefined), the TGI in experiment [1] is 33.1 µM; in experiment [2], 26.8 µM; in experiment [3] it was 38.4 µM; in experiment [4], 35.2 µM; in experiment [5] it was 34.8 µM; in experiment [6], 40.4 µM. The TGI was greater than 100 µM in experiment [7], 30 µM in experiment [8], 43.3 µM in [9] and 53.7 µM in [10].

With `N#Cc1cccc(C2ON=C(c3ccc([N+](=O)[O-])cc3)N2C23CC4CC(CC(C4)C2)C3)c1` (centres undefined), the TGI in [1], in experiment [2], in [3], in experiment [4], in experiment [5] and in experiment [6] was greater than 100 µM each time. In addition, the TGI in experiment [7], in experiment [8], in experiment [9] and in [10] was greater than 100 µM throughout.

As for `Cc1cn(CC2=NCCN2)c(=O)[nH]c1=O`, the TGI in experiment [1], in [2], in experiment [3], in experiment [4], in [5] and in experiment [6] was greater than 100 µM each time. Moreover, the TGI in [7], in [8], in [9] and in experiment [10] was greater than 100 µM each time.

For the compound `O=C1NCC2(CCNCC2)N1c1ccccc1`, the TGI in experiment [1], in experiment [2], in experiment [3], in experiment [4], in experiment [5] and in experiment [6] was greater than 100 µM each time. The TGI in experiment [7], in experiment [8], in experiment [9] and in [10] was greater than 100 µM each time.

In the case of `N=C(/C=C/c1ccc(-c2cn3cc(/C=C/C(=N)N4CCCC4)ccc3n2)cc1)N1CCCC1`, the TGI in experiment [1], in [2], in [3], in [4], in [5] and in [6] was greater than 100 µM in each case. The TGI in experiment [7], in experiment [8], in experiment [9] and in experiment [10] was greater than 100 µM in each case.

With `CSC(SC)=C1C(=O)NN=C1C`, the TGI in [1], in experiment [2], in experiment [3], in [4], in experiment [5] and in experiment [6] was greater than 100 µM throughout. The TGI in experiment [8], in [9] and in experiment [10] was greater than 100 µM throughout.

For the compound `COc1ccc(/C=C2\CN(C(=O)CCN3CCC(=NO)CC3)C/C(=C\c3ccc(OC)cc3)C2=O)cc1`, the GI50 in [1] is 3.28 µM; in [2], 1.2 µM; in experiment [3] it was 1.74 µM; in experiment [4] it was 2.04 µM; in [5] it was 2.11 µM; in experiment [6], 2.47 µM. In addition, the GI50 in experiment [7] is 3.22 µM; in experiment [8], 1.68 µM; in experiment [9], 11.7 µM; in [10], 2.57 µM. In addition, the TGI was 11.7 µM in [1]; greater than 100 µM in [2]; 3.71 µM in experiment [3]; 4.54 µM in experiment [4]; 4.55 µM in experiment [5]; 6.37 µM in experiment [6]. Besides, the TGI in experiment [7] came out at 16 µM; in [8] it was 3.15 µM; in [9], 30.4 µM; in [10] it was 8.91 µM.

Take `CC(C)(C)c1cc(C(=O)/C=C/c2ccc(O)c(O)c2O)cc(C(C)(C)C)c1O`: the TGI worked out at 40.9 µM in experiment [1]; 21.7 µM in experiment [2]; 11.6 µM in experiment [3]; 20.6 µM in experiment [4]; 36 µM in experiment [5]; 20 µM in experiment [6]. In addition, the TGI was greater than 63.7 µM in experiment [7], 13.3 µM in experiment [8], 19.2 µM in experiment [9] and 13.3 µM in experiment [10].

Regarding `CC[C@@H](CCCC[C@@H]1CC[C@H]2CC(=O)C[C@@H]12)OC`, the TGI in experiment [1], in experiment [2], in [3], in experiment [4], in experiment [5] and in experiment [6] was greater than 100 µM each time. Moreover, the TGI in experiment [7], in [8], in experiment [9] and in [10] was greater than 100 µM in each case.

For `Cc1nc(-c2ccccc2)c(C)n2c1nc1ccccc12`, the TGI was greater than 100 µM in [1]; greater than 100 µM in experiment [2]; greater than 100 µM in [3]; 46 µM in experiment [4]; greater than 100 µM in [5]; 40.9 µM in experiment [6]. Besides, the TGI in experiment [7] is 70.1 µM; in [8] it was 88.9 µM; in experiment [9], 45.9 µM; in experiment [10], 45.3 µM.

Consider `COc1ccc2c(c1)c1nn(CCN(C)C)c3ccc4c(=O)n(CCN(C)C)c(=O)n2c4c13`, for which the TGI in [1] was 0.0759 µM; in experiment [2], 0.448 µM; in [3] it was 0.481 µM; in experiment [4] it was 0.324 µM; in experiment [5], 0.26 µM; in experiment [6], 0.231 µM. Further, the TGI is 0.175 µM in experiment [7], 0.38 µM in experiment [8], 0.192 µM in experiment [9] and greater than 25.8 µM in experiment [10].

As for `COc1cc(N(CCC#N)CCC#N)ccc1/C(N=Nc1ccc(C)cc1)=N/NC(=O)c1cc(Br)ccc1O`, the TGI was greater than 100 µM in experiment [1]; greater than 100 µM in [2]; 44.9 µM in [3]; greater than 100 µM in [4]; 55.2 µM in experiment [5]; 39.3 µM in [6]. Besides, the TGI was 88 µM in experiment [7], 65.6 µM in experiment [8], 96.5 µM in experiment [9] and 47.3 µM in [10].

As for `CC(=O)Nc1ccc(Nc2cc(=O)n(C)c(=O)[nH]2)cc1`, the TGI in experiment [1], in experiment [2], in experiment [3], in [4], in experiment [5] and in [6] was greater than 100 µM each time. Also, the TGI in experiment [7], in experiment [8], in experiment [9] and in experiment [10] was greater than 100 µM in each case.

For the compound `CN(C)CCN1C(=O)CC[C@@]2(C)C1=CC[C@@H]1[C@@H]2CC[C@@]2(C)[C@H]1CC[C@]2(C)O`, the TGI in experiment [1], in experiment [2], in experiment [3], in experiment [4], in [5] and in [6] was greater than 100 µM in each case. The TGI in experiment [7], in [8], in experiment [9] and in experiment [10] was greater than 100 µM each time.
